Several values for one entry are separate records, joined by “and”; a condition that tells them apart may be missing. Equal values may be shown once. Read-outs that look alike come from different tables or passages of the source.
System: panel of 140 standard cancer cell lines
Assay: ProliFiler-140 cancer cell line screen (CellTiterGlo, 72 h)
Format: cell-based
Experimental: Incubations were performed for 72 h before automated viability readout with CellTiterGlo (Figure 8).
End of Figure S11 (part 5 of 5): ProliFiler-140 cancer cell line screening for cytotoxicity of the prodrugs.
8-data-point dose response curves from CellTiter-Glo® viability readout.
ProliFiler-140 cell line panel part V

SMILES: COc1cc2cc(C(=O)N3C[C@@H](CCl)c4c3cc(OC(=O)N(CCC(=O)N3CCN(C)CC3)C3CCCCC3)c3ccccc43)[nH]c2c(OC)c1OC [P-CC60-CBI-TMI]
- IC50 (MEC-1 (Blood), read-out: IC50 [M] (ProliFiler-140)): 8.9e-08 M and 8.89e-08 M
- IC50 (MKN-1 (Stomach), read-out: IC50 [M] (ProliFiler-140)): 1.5e-06 M and 1.53e-06 M
- IC50 (MKN-45 (Stomach), read-out: IC50 [M] (ProliFiler-140)): 4.87e-07 M and 4.9e-07 M
- IC50 (MOLM-13 (Blood), read-out: IC50 [M] (ProliFiler-140)): 6.1e-08 M and 6.05e-08 M
- IC50 (MOLT-4 (Blood), read-out: IC50 [M] (ProliFiler-140)): 7.6e-08 M and 7.57e-08 M
- IC50 (MV4-11 (Blood), read-out: IC50 [M] (ProliFiler-140)): 1.2e-08 M and 1.18e-08 M
- IC50 (Mia PaCA 2 (Pancreas), read-out: IC50 [M] (ProliFiler-140)): 3.75e-07 M and 3.8e-07 M
- IC50 (NALM-6 (Blood), read-out: IC50 [M] (ProliFiler-140)): 5.58e-08 M and 5.6e-08 M
- IC50 (NCI-H82 (Lung), read-out: IC50 [M] (ProliFiler-140)): 7.5e-07 M
- IC50 (NCI-H292 (Lung), read-out: IC50 [M] (ProliFiler-140)): 2.6e-07 M and 2.59e-07 M
- IC50 (NCI-H441 (Lung), read-out: IC50 [M] (ProliFiler-140)): 2.94e-07 M and 2.9e-07 M
- IC50 (NCI-H838 (Lung), read-out: IC50 [M] (ProliFiler-140)): 7.5e-07 M and 7.54e-07 M
- IC50 (NCI-H1048 (Lung), read-out: IC50 [M] (ProliFiler-140)): 5.9e-08 M and 5.92e-08 M
- IC50 (NCI-H1437 (Lung), read-out: IC50 [M] (ProliFiler-140)): 3.01e-07 M and 3e-07 M
- IC50 (NCI-H1563 (Lung), read-out: IC50 [M] (ProliFiler-140)): 1.7e-06 M and 1.69e-06 M
- IC50 (NCI-H1573 (Lung), read-out: IC50 [M] (ProliFiler-140)): 1.1e-06 M and 1.07e-06 M
- IC50 (NCI-H1581 (Lung), read-out: IC50 [M] (ProliFiler-140)): 4.32e-07 M and 4.3e-07 M
- IC50 (NCI-H1703 (Lung), read-out: IC50 [M] (ProliFiler-140)): 8.1e-07 M and 8.15e-07 M
- IC50 (NCI-H1838 (Lung), read-out: IC50 [M] (ProliFiler-140)): 8.2e-07 M and 8.19e-07 M
- IC50 (NCI-H2009 (Lung), read-out: IC50 [M] (ProliFiler-140)): 4.22e-07 M and 4.2e-07 M
- IC50 (NCI-H2110 (Lung), read-out: IC50 [M] (ProliFiler-140)): 1.4e-07 M and 1.44e-07 M
- IC50 (NCI-H2286 (Lung), read-out: IC50 [M] (ProliFiler-140)): 1.2e-07 M and 1.25e-07 M
- IC50 (NCI-N87 (Stomach), read-out: IC50 [M] (ProliFiler-140)): 1.1e-06 M and 1.15e-06 M
- IC50 (OCI-AML3 (Blood), read-out: IC50 [M] (ProliFiler-140)): 1.3e-07 M and 1.33e-07 M
- IC50 (OCI-AML5 (Blood), read-out: IC50 [M] (ProliFiler-140)): 3.4e-08 M and 3.39e-08 M
- IC50 (OCI-LY19 (Blood), read-out: IC50 [M] (ProliFiler-140)): 1.53e-08 M and 1.5e-08 M
- IC50 (OPM-2 (Blood), read-out: IC50 [M] (ProliFiler-140)): 6.61e-07 M and 6.6e-07 M
- IC50 (OV56 (Ovary), read-out: IC50 [M] (ProliFiler-140)): 2.02e-07 M and 2e-07 M
- IC50 (OVCAR-3 (Ovary), read-out: IC50 [M] (ProliFiler-140)): 1e-06 M and 1.02e-06 M
- IC50 (OVCAR-3, read-out: IC50): 1e-06 M
- IC50 (OVK18 (Ovary), read-out: IC50 [M] (ProliFiler-140)): 2e-07 M
- IC50 (P31/FUJ (Blood), read-out: IC50 [M] (ProliFiler-140)): 1.9e-07 M and 1.88e-07 M
- IC50 (PANC-1 (Pancreas), read-out: IC50 [M] (ProliFiler-140)): 1.4e-06 M and 1.38e-06 M
- IC50 (PC3 (Prostate), read-out: IC50 [M] (ProliFiler-140)): 5.17e-07 M and 5.2e-07 M
- IC50 (PC-9 (Lung), read-out: IC50 [M] (ProliFiler-140)): 1.1e-07 M and 1.14e-07 M
- IC50 (RERF-LC-Ad2 (Lung), read-out: IC50 [M] (ProliFiler-140)): 7.8e-07 M and 7.84e-07 M
- IC50 (RERF-LC-MS (Lung), read-out: IC50 [M] (ProliFiler-140)): 4.59e-07 M and 4.6e-07 M
- IC50 (RKO (Colon), read-out: IC50 [M] (ProliFiler-140)): 2.98e-07 M and 3e-07 M
- IC50 (RL95-2 (Endometrium), read-out: IC50 [M] (ProliFiler-140)): 7.43e-07 M and 7.4e-07 M
- IC50 (RPMI 8226 (Blood), read-out: IC50 [M] (ProliFiler-140)): 3.38e-07 M and 3.4e-07 M
- IC50 (RPMI 8226, read-out: IC50): 3.4e-07 M
- IC50 (SCH (Stomach), read-out: IC50 [M] (ProliFiler-140)): 3.9e-07 M and 3.87e-07 M
- IC50 (SCLC-21H (Lung), read-out: IC50 [M] (ProliFiler-140)): 1.58e-07 M and 1.6e-07 M
- IC50 (SJSA-1 (Bone), read-out: IC50 [M] (ProliFiler-140)): 3.78e-07 M and 3.8e-07 M
- IC50 (SK-BR-3 (Breast), read-out: IC50 [M] (ProliFiler-140)): 3.7e-07 M
- IC50 (SK-ES-1 (Bone), read-out: IC50 [M] (ProliFiler-140)): 3.35e-08 M and 3.4e-08 M
- IC50 (SK-LU-1 (Lung), read-out: IC50 [M] (ProliFiler-140)): 1.6e-07 M and 1.62e-07 M
- IC50 (SK-MEL-3 (Skin), read-out: IC50 [M] (ProliFiler-140)): 1e-06 M and 1.03e-06 M
- IC50 (SK-N-FI (Brain), read-out: IC50 [M] (ProliFiler-140)): 6.81e-07 M and 6.8e-07 M
- IC50 (SK-N-MC (Brain), read-out: IC50 [M] (ProliFiler-140)): 1.3e-08 M and 1.33e-08 M
- IC50 (SK-N-SH (Brain), read-out: IC50 [M] (ProliFiler-140)): 7.5e-07 M and 7.45e-07 M
- IC50 (SK-OV3 (Ovary), read-out: IC50 [M] (ProliFiler-140)): 4.38e-07 M and 4.4e-07 M
- IC50 (SK-OV3, read-out: IC50): 4.4e-07 M
- IC50 (SNU840 (Ovary), read-out: IC50 [M] (ProliFiler-140)): 6.99e-08 M and 7e-08 M
- IC50 (SNU-1 (Stomach), read-out: IC50 [M] (ProliFiler-140)): 2.3e-07 M and 2.27e-07 M
- IC50 (SNU-16 (Stomach), read-out: IC50 [M] (ProliFiler-140)): 7.09e-07 M and 7.1e-07 M
- IC50 (SNU-216 (Stomach), read-out: IC50 [M] (ProliFiler-140)): 1.84e-06 M and 1.8e-06 M
- IC50 (SU-DHL-5 (Blood), read-out: IC50 [M] (ProliFiler-140)): 5e-08 M and 4.98e-08 M
- IC50 (SW480 (Colon), read-out: IC50 [M] (ProliFiler-140)): 3.31e-07 M and 3.3e-07 M
- IC50 (SW620 (Colon), read-out: IC50 [M] (ProliFiler-140)): 6.99e-07 M and 7e-07 M
- IC50 (SW948 (Colon), read-out: IC50 [M] (ProliFiler-140)): 6.79e-07 M and 6.8e-07 M
- IC50 (SW-1783 (Brain), read-out: IC50 [M] (ProliFiler-140)): 4.78e-07 M and 4.8e-07 M
- IC50 (Saos-2 EC (Bone), read-out: IC50 [M] (ProliFiler-140)): 2.34e-07 M and 2.3e-07 M
- IC50 (SiHa (Ovary), read-out: IC50 [M] (ProliFiler-140)): 6.13e-07 M and 6.1e-07 M
- IC50 (T84 (Colon), read-out: IC50 [M] (ProliFiler-140)): 9.09e-07 M and 9.1e-07 M
- IC50 (T98G (Brain), read-out: IC50 [M] (ProliFiler-140)): 6.6e-07 M
- IC50 (T-47D (Breast), read-out: IC50 [M] (ProliFiler-140)): 1e-06 M and 1.04e-06 M
- IC50 (T-47D, read-out: IC50): 1e-06 M
- IC50 (U2OS (Bone), read-out: IC50 [M] (ProliFiler-140)): 1.31e-07 M and 1.3e-07 M
- IC50 (U87MG (Brain), read-out: IC50 [M] (ProliFiler-140)): 1.2e-06 M and 1.22e-06 M
- IC50 (U118MG (Brain), read-out: IC50 [M] (ProliFiler-140)): 3.92e-07 M and 3.9e-07 M
- IC50 (U251MG (Brain), read-out: IC50 [M] (ProliFiler-140)): 2e-06 M
- IC50 (U-266 (Blood), read-out: IC50 [M] (ProliFiler-140)): 1.41e-07 M and 1.4e-07 M
- IC50 (U-937 (Blood), read-out: IC50 [M] (ProliFiler-140)): 7.39e-08 M and 7.4e-08 M
- IC50 (ZR-75-1 (Breast), read-out: IC50 [M] (ProliFiler-140)): 1.42e-06 M and 1.4e-06 M
- IC50 (read-out: IC50 [M] (ProliFiler-140)): 2.36e-07 M and 2.4e-07 M
